This assay has as its target Estrogen receptor beta (Homo sapiens, UniProt Q92731).

Sequence of Estrogen receptor beta (Q92731 whole entry): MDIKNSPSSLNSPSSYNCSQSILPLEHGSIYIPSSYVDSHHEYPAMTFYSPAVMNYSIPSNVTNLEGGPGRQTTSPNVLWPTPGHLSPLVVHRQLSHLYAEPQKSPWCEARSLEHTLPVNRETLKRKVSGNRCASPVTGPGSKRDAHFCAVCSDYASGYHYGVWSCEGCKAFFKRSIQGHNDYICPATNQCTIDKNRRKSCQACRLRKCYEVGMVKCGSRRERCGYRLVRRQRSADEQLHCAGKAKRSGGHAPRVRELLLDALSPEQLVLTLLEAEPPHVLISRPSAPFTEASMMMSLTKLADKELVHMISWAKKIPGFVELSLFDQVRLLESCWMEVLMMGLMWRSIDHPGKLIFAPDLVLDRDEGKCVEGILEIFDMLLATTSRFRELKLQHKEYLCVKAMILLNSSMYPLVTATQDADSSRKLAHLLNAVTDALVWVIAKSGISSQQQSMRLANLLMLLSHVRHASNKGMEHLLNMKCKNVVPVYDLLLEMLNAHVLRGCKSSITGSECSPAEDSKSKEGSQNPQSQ
Description: Antagonist activity at human ER-beta transfected in human HepG2 cells incubated for 24 hrs by 3xERE-driven luciferase reporter assay

Compound `C=CCc1ccc(OC(=O)CCC)c(-c2ccc(O)c(CC=C)c2)c1` returned an IC50 of 1320 µM.
